Target: Transient receptor potential cation channel subfamily V member 1 (Homo sapiens, UniProt Q8NER1)
Test: Ca2+ Influx Functional Assay for the Determination of in Vitro Activity.
Conditions: pH 7.4; 22 °C

Sequence of Transient receptor potential cation channel subfamily V member 1 (Q8NER1 whole entry): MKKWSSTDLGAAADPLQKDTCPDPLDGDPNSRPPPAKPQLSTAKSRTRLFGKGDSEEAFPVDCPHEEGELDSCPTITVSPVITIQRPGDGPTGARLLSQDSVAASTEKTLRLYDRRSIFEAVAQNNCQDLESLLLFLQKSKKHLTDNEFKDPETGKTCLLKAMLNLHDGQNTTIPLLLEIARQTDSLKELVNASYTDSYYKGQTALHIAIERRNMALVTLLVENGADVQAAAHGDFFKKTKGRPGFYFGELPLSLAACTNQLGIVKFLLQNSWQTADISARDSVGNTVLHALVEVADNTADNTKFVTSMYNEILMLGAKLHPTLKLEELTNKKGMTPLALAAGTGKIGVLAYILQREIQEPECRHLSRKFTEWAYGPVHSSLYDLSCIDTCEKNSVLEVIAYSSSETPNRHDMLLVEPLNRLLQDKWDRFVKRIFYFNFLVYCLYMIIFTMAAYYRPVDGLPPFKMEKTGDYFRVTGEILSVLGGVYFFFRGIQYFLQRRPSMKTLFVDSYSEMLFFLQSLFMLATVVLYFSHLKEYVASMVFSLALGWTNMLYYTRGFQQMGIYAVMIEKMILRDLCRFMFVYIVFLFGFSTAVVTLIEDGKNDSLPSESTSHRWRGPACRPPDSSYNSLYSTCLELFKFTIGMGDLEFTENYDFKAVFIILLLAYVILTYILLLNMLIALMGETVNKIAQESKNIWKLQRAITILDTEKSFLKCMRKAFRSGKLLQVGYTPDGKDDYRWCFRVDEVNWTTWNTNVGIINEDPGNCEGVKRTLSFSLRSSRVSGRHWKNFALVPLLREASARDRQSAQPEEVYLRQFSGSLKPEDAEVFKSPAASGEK

| EC50 | Structure (SMILES) |
| --- | --- |
| 21 nM | O=C(NCc1ccc(Cl)c(Cl)c1)Nc1cccc2[nH]ncc12 [1-[(3,4-dichlorophenyl)methyl]-3-1H-indazol-4-ylurea] |
| 13 nM | O=C(NCc1ccc(Br)cc1)Nc1cccc2[nH]ncc12 [1-[(4-bromophenyl)methyl]-3-1H-indazol-4-ylurea] |
| 3540 nM | O=C(NCc1ccc(Br)cc1)Nc1ccc2[nH]ncc2c1 [1-[(4-bromophenyl)methyl]-3-1H-indazol-5-ylurea] |
| 2710 nM | O=C(NCc1ccc(F)cc1)Nc1cccc2[nH]ccc12 [1-[(4-fluorophenyl)methyl]-3-1H-indol-4-ylurea] |
| 720 nM | Cn1ncc2c(NC(=O)NCc3ccc(F)cc3)cccc21 [1-[(4-fluorophenyl)methyl]-3-(1-methyl-1H-indazol-4-yl)urea] |
| 40 nM | O=C(NCc1ccc(C(F)(F)F)c(F)c1)Nc1cccc2[nH]ccc12 [1-{[3-fluoro-4-(trifluoromethyl)phenyl]methyl}-3-1H-indol-4-ylurea] |
| 70 nM | O=C(NCc1ccc(Cl)c(C(F)(F)F)c1)Nc1cccc2[nH]ccc12 [1-{[4-chloro-3-(trifluoromethyl)phenyl]methyl}-3-1H-indol-4-ylurea] |
| 10200 nM | O=C(Cc1cccc2[nH]ncc12)NCc1ccc(C(F)(F)F)cc1 [2-(1H-indazol-4-yl)-N-{[4-(trifluoromethyl)phenyl]methyl}acetamide] |
| 520 nM | O=C(Cc1cccc2[nH]ccc12)NCc1ccc(C(F)(F)F)cc1 [2-(1H-indol-4-yl)-N-{[4-(trifluoromethyl)phenyl]methyl}acetamide] |
| 44 nM | O=C(NCc1cccc(C(F)(F)F)c1)Nc1cccc2[nH]ncc12 [3-1H-indazol-4-yl-1-{[3-(trifluoromethyl)phenyl]methyl}urea] |
| 11 nM | O=C(NCc1ccc(OC(F)(F)F)cc1)Nc1cccc2[nH]ncc12 [3-1H-indazol-4-yl-1-{[4-(trifluoromethoxy)phenyl]methyl}urea] |
| 9 nM | O=C(NCc1ccc(C(F)(F)F)cc1)Nc1cccc2[nH]ncc12 [3-1H-indazol-4-yl-1-{[4-(trifluoromethyl)phenyl]methyl}urea] |
| 80 nM | O=C(NCc1ccc(OC(F)(F)F)cc1)Nc1cccc2[nH]ccc12 [3-1H-indol-4-yl-1-{[4-(trifluoromethoxy)phenyl]methyl}urea] |
| 60 nM | O=C(NCc1ccc(C(F)(F)F)cc1)Nc1cccc2[nH]ccc12 [3-1H-indol-4-yl-1-{[4-(trifluoromethyl)phenyl]methyl}urea] |
| 35 nM | Cn1ncc2c(NC(=O)NCc3ccc(OC(F)(F)F)cc3)cccc21 [3-(1-methyl-1H-indazol-4-yl)-1-{[4-(trifluoromethoxy)phenyl]methyl}urea] |
| 940 nM | O=C(Nc1cccc2[nH]ccc12)OCc1ccc(C(F)(F)F)cc1 [[4-(trifluoromethyl)phenyl]methyl N-(1H-indol-4-yl)carbamate] |

The next lines start with the compound.

| Structure (SMILES) | EC50 |
| --- | --- |
| O=C(NCc1ccc(Cl)c(Cl)c1)Nc1cccc2[nH]ccc12 [1-[(3,4-dichlorophenyl)methyl]-3-1H-indol-4-ylurea] | 220 nM |
| Cn1ncc2c(NC(=O)NCc3ccc(Cl)c(Cl)c3)cccc21 [1-[(3,4-dichlorophenyl)methyl]-3-(1-methyl-1H-indazol-4-yl)urea] | 120 nM |
| O=C(NCc1cccc(F)c1)Nc1cccc2[nH]ccc12 [1-[(3-fluorophenyl)methyl]-3-1H-indol-4-ylurea] | 2700 nM |
| O=C(NCc1ccc(Br)cc1)Nc1cccc2[nH]ccc12 [1-[(4-bromophenyl)methyl]-3-1H-indol-4-ylurea] | 110 nM |
| O=C(NCc1ccc(Br)cc1)Nc1ccc2[nH]ccc2c1 [1-[(4-bromophenyl)methyl]-3-1H-indol-5-ylurea] | 5850 nM |
| O=C(NCc1ccc(Br)cc1)Nc1ccc2cc[nH]c2c1 [1-[(4-bromophenyl)methyl]-3-1H-indol-6-ylurea] | 3010 nM |
| O=C(NCc1ccc(Br)cc1)Nc1cccc2cc[nH]c12 [1-[(4-bromophenyl)methyl]-3-1H-indol-7-ylurea] | 180 nM |
| Cn1ncc2c(NC(=O)NCc3ccc(Br)cc3)cccc21 [1-[(4-bromophenyl)methyl]-3-(1-methyl-1H-indazol-4-yl)urea] | 76 nM |
| Cc1[nH]c2cccc(NC(=O)NCc3ccc(Br)cc3)c2c1C [1-[(4-bromophenyl)methyl]-3-(2,3-dimethyl-1H-indol-4-yl)urea] | 1470 nM |
| Cn1cc2c(NC(=O)NCc3ccc(Br)cc3)cccc2n1 [1-[(4-bromophenyl)methyl]-3-(2-methyl-2H-indazol-4-yl)urea] | 1390 nM |
| O=C(NCc1ccc(Cl)cc1)Nc1cccc2[nH]ccc12 [1-[(4-chlorophenyl)methyl]-3-1H-indol-4-ylurea] | 150 nM |
| Cn1ncc2c(NC(=O)NCc3ccc(Cl)cc3)cccc21 [1-[(4-chlorophenyl)methyl]-3-(1-methyl-1H-indazol-4-yl)urea] | 60 nM |
| O=C(NCc1ccc(Br)cc1)Nc1cccc2nc[nH]c12 [3-1H-1,3-benzodiazol-4-yl-1-[(4-bromophenyl)methyl]urea] | 2470 nM |
